{"source": "patent US9066965B1", "about": "“Purified limonin glucoside for prevention and treatment of chronic diseases” (The United States of America, as represented by the …, priority 2012, dated 2015)", "key": {"[1]": {"test": "Complete blood cell count (hematological parameters)", "type": "in vivo, human", "design": "Monocytes / Eosinophil / Basophils / Platelets / WBC / Neutrophils / Lymphocytes: unit not given here", "description": "Complete and differential cell counts were performed at the hematology laboratory of University of California Medical Center (UCDMC), Sacramento using Beckman Coulter LH 700.\nResults are presented as means±SEM."}, "[2]": {"test": "Comprehensive metabolic panel (CMP) on serum", "type": "in vivo, human", "description": "CMP performed on serum samples at the chemistry laboratory of University of California Medical Center by using the Beckman Coulter DxC800. GGT and CKMB were determined in the EDTA plasma. GGT activity was determined by using Integra 400 Chemistry Analyzer, Roche Diagnostics. CKMB concentration was determined by using the Multiplex kits from Mesoscale Discovery (Gaithersburg, Md. 20877).\nSAS PROC MIXED was used to fit the cross-over model (Littell R C, Milliken G A, Stroup W W, Wolfinger R D, Schabenberger O. SAS System for Mixed Models. Cay, N.C.: SAS Institute Inc.; 2006). Transformations were used when appropriate to stabilize the variances among the diets and periods. The fixed effects were order, diet, the interaction and the covariate; and the random effect was subjects within order. The test for order is a test for carry-over effect. […] Comparisons were made between the values at the end of placebo and LG treatments and using the baseline data as a covariate. Results are presented as means±SEM. Differences were considered statistically significant for P value<0.05."}, "[3]": {"conditions": "End LG, 500 mg/d, 56 days, n = 10, mean ± SEM"}, "[4]": {"conditions": "serum, End LG, 500 mg/d, 56 days, n = 10, mean ± SEM"}}}
{"compound": "CC1(C)O[C@H]2CC(=O)OC[C@]23[C@H]2CC[C@@](C)([C@@H](O[C@@H]4O[C@H](CO)[C@@H](O)[C@H](O)[C@H]4O)c4ccoc4)[C@@]4(O[C@@H]4C(=O)O)[C@]2(C)C(=O)C[C@@H]13", "note": "[LG, limonin glucoside]", "values": [{"measurement": "Basophils", "setting": "[1]; [3]", "result": "0.03 ± 0.00"}, {"measurement": "Basophils, % of WBC", "setting": "[1]; [3]", "result": "0.47 ± 0.04 % of WBC"}, {"measurement": "Eosinophil", "setting": "[1]; [3]", "result": "0.18 ± 0.03"}, {"measurement": "Eosinophil, % of WBC", "setting": "[1]; [3]", "result": "3.32 ± 0.52 % of WBC"}, {"measurement": "Hematocrit", "setting": "[1]; [3]", "result": "41.47 ± 1.00", "unit": "%"}, {"measurement": "Hemoglobin", "setting": "[1]; [3]", "result": "13.94 ± 0.61", "unit": "g/dL"}, {"measurement": "Lymphocytes", "setting": "[1]; [3]", "result": "1.80 ± 0.14"}, {"measurement": "Lymphocytes, % of WBC", "setting": "[1]; [3]", "result": "33.01 ± 2.09 % of WBC"}, {"measurement": "MCH", "setting": "[1]; [3]", "result": "31.08 ± 0.39", "unit": "pico grams"}, {"measurement": "MCHC", "setting": "[1]; [3]", "result": "33.98 ± 0.16", "unit": "%"}, {"measurement": "MCV", "setting": "[1]; [3]", "result": "91.44 ± 1.29", "unit": "microns"}, {"measurement": "Monocytes", "setting": "[1]; [3]", "result": "0.42 ± 0.03"}, {"measurement": "Monocytes, % of WBC", "setting": "[1]; [3]", "result": "7.79 ± 1.03 % of WBC"}, {"measurement": "Neutrophils", "setting": "[1]; [3]", "result": "3.14 ± 0.30"}, {"measurement": "Neutrophils, % of WBC", "setting": "[1]; [3]", "result": "55.41 ± 3.16 % of WBC"}, {"measurement": "Platelets", "setting": "[1]; [3]", "result": "229.00 ± 12.74"}, {"measurement": "RBC", "setting": "[1]; [3]", "result": "4.54 ± 0.13 × 10^−12/L"}, {"measurement": "RDW", "setting": "[1]; [3]", "result": "13.12 ± 0.13", "unit": "%"}, {"measurement": "WBC", "setting": "[1]; [3]", "result": "5.55 ± 0.38"}, {"measurement": "pH", "setting": "[1]; [3]", "result": "6.75 ± 0.27"}, {"measurement": "effect on hematological variables", "setting": "[1]; vs end of placebo treatment, baseline as covariate", "result": "did not alter"}, {"measurement": "Albumin", "setting": "[2]; [4]", "result": "3.95 ± 0.05", "unit": "g/dL"}, {"measurement": "Aspartate amino transferase", "setting": "[2]; [4]", "result": "23.3 ± 2.22", "unit": "U/L"}, {"measurement": "CO2", "setting": "[2]; [4]", "result": "29.10 ± 0.48", "unit": "mEq/L"}, {"measurement": "Calcium", "setting": "[2]; [4]", "result": "9.42 ± 0.06", "unit": "mg/dL"}, {"measurement": "Chloride", "setting": "[2]; [4]", "result": "104.80 ± 0.81", "unit": "mEq/L"}, {"measurement": "Creatinine", "setting": "[2]; [4]", "result": "0.84 ± 0.03", "unit": "mg/dL"}, {"measurement": "Glucose", "setting": "[2]; [4]", "result": "89.7 ± 2.58", "unit": "mg/dL"}, {"measurement": "Lactate dehydrogenase", "setting": "[2]; [4]", "result": "126.80 ± 8.90", "unit": "U/L"}, {"measurement": "Potassium", "setting": "[2]; [4]", "result": "4.61 ± 0.12", "unit": "mEq/L"}, {"measurement": "Protein", "setting": "[2]; [4]", "result": "6.59 ± 0.08", "unit": "g/dL"}, {"measurement": "Sodium", "setting": "[2]; [4]", "result": "140.80 ± 0.68", "unit": "mEq/L"}, {"measurement": "Total bilirubin", "setting": "[2]; [4]", "result": "0.81 ± 0.08", "unit": "mg/dL"}, {"measurement": "Urea", "setting": "[2]; [4]", "result": "11.70 ± 0.92", "unit": "mg/dL"}, {"measurement": "effect on circulating concentration of AST", "setting": "[2]; vs end of placebo treatment", "result": "did not significantly decrease"}, {"measurement": "effect on serum albumin, total protein, glucose, aspartate amino transferase, lactate dehydrogenase, calcium, potassium, sodium, chloride, CO2, creatinine, CKMB, total bilirubin, urea", "setting": "[2]; vs end of placebo treatment", "result": "did not alter"}]}
